Results taken from ChEMBL document CHEMBL1671673, “In vitro activity of colistin (polymyxin E) against 3,480 isolates of gram-negative bacilli obtained from patients in Canadian hospitals in the CANWARD study, 2007-2008” (Antimicrob Agents Chemother, 2009).

Columns and labels:
Type in all cases: functional, organism-based
Escherichia coli [1] = experiment: Antibacterial activity against ESBL-producing Escherichia coli assessed as susceptible isolates at minimum inhibitory concentration of 1 ug/ml by CLSI broth microdilution method; parameters: scale not given: the % may be the effect or the level left
[2] = test system: Stenotrophomonas maltophilia; experiment: Antibacterial activity against Stenotrophomonas maltophilia assessed as susceptible isolates at minimum inhibitory concentration of 1 ug/ml by CLSI broth microdilution method; parameters: scale not given: the % may be the effect or the level left
Pseudomonas aeruginosa [3] = experiment: Antibacterial activity against Levofloxacin-resistant Pseudomonas aeruginosa assessed as susceptible isolates at minimum inhibitory concentration of 2 ug/ml by CLSI broth microdilution method; parameters: scale not given: the % may be the effect or the level left
Enterobacter cloacae [4] = experiment: Antibacterial activity against Enterobacter cloacae assessed as susceptible isolates at minimum inhibitory concentration of 4 ug/ml by CLSI broth microdilution method; parameters: scale not given: the % may be the effect or the level left
Klebsiella aerogenes [5] = experiment: Antibacterial activity against Enterobacter aerogenes assessed as susceptible isolates at minimum inhibitory concentration of 4 ug/ml by CLSI broth microdilution method; parameters: scale not given: the % may be the effect or the level left
[6] = test system: Stenotrophomonas maltophilia; experiment: Antibacterial activity against Stenotrophomonas maltophilia assessed as susceptible isolates at minimum inhibitory concentration of 4 ug/ml by CLSI broth microdilution method; parameters: scale not given: the % may be the effect or the level left
Pseudomonas aeruginosa [7] = experiment: Antibacterial activity against MDR4 Pseudomonas aeruginosa assessed as susceptible isolates at minimum inhibitory concentration of 2 ug/ml by CLSI broth microdilution method; parameters: scale not given: the % may be the effect or the level left
Escherichia coli [8] = experiment: Antibacterial activity against ESBL-producing Escherichia coli assessed as susceptible isolates at minimum inhibitory concentration of 2 ug/ml by CLSI broth microdilution method; parameters: scale not given: the % may be the effect or the level left
Klebsiella aerogenes [9] = experiment: Antibacterial activity against Enterobacter aerogenes assessed as susceptible isolates at minimum inhibitory concentration of 0.5 ug/ml by CLSI broth microdilution method; parameters: scale not given: the % may be the effect or the level left
Enterobacter cloacae [10] = experiment: Antibacterial activity against Enterobacter cloacae assessed as susceptible isolates at minimum inhibitory concentration of >16 ug/ml by CLSI broth microdilution method; parameters: scale not given: the % may be the effect or the level left
[11] = test system: Stenotrophomonas maltophilia; experiment: Antibacterial activity against Stenotrophomonas maltophilia assessed as susceptible isolates at minimum inhibitory concentration of 2 ug/ml by CLSI broth microdilution method; parameters: scale not given: the % may be the effect or the level left
[12] = test system: Stenotrophomonas maltophilia; experiment: Antibacterial activity against Stenotrophomonas maltophilia assessed as susceptible isolates at minimum inhibitory concentration of 0.12 ug/ml by CLSI broth microdilution method; parameters: scale not given: the % may be the effect or the level left
Serratia marcescens [13] = experiment: Antibacterial activity against Serratia marcescens assessed as susceptible isolates at minimum inhibitory concentration of 2 ug/ml by CLSI broth microdilution method; parameters: scale not given: the % may be the effect or the level left
Proteus mirabilis [14] = experiment: Antibacterial activity against Proteus mirabilis assessed as susceptible isolates at minimum inhibitory concentration of 4 ug/ml by CLSI broth microdilution method; parameters: scale not given: the % may be the effect or the level left
Enterobacter cloacae [15] = experiment: Antibacterial activity against Enterobacter cloacae assessed as susceptible isolates at minimum inhibitory concentration of <=0.06 ug/ml by CLSI broth microdilution method; parameters: scale not given: the % may be the effect or the level left
Pseudomonas aeruginosa [16] = experiment: Antibacterial activity against Meropenem-resistant Pseudomonas aeruginosa assessed as susceptible isolates at minimum inhibitory concentration of 1 ug/ml by CLSI broth microdilution method; parameters: scale not given: the % may be the effect or the level left
Pseudomonas aeruginosa [17] = experiment: Antibacterial activity against Pseudomonas aeruginosa assessed as susceptible isolates at minimum inhibitory concentration of 0.12 ug/ml by CLSI broth microdilution method; parameters: scale not given: the % may be the effect or the level left
Klebsiella aerogenes [18] = experiment: Antibacterial activity against Enterobacter aerogenes assessed as susceptible isolates at minimum inhibitory concentration of 2 ug/ml by CLSI broth microdilution method; parameters: scale not given: the % may be the effect or the level left
Klebsiella pneumoniae [19] = experiment: Antibacterial activity against ESBL-producing Klebsiella pneumoniae assessed as susceptible isolates at minimum inhibitory concentration of 16 ug/ml by CLSI broth microdilution method; parameters: scale not given: the % may be the effect or the level left
Pseudomonas aeruginosa [20] = experiment: Antibacterial activity against Amikacin-resistant Pseudomonas aeruginosa assessed as susceptible isolates at minimum inhibitory concentration of 16 ug/ml by CLSI broth microdilution method; parameters: scale not given: the % may be the effect or the level left
Pseudomonas aeruginosa [21] = experiment: Antibacterial activity against Gentamicin-resistant Pseudomonas aeruginosa assessed as susceptible isolates at minimum inhibitory concentration of >16 ug/ml by CLSI broth microdilution method; parameters: scale not given: the % may be the effect or the level left
Pseudomonas aeruginosa [22] = experiment: Antibacterial activity against Amikacin-resistant Pseudomonas aeruginosa assessed as susceptible isolates at minimum inhibitory concentration of 8 ug/ml by CLSI broth microdilution method; parameters: scale not given: the % may be the effect or the level left
Serratia marcescens [23] = experiment: Antibacterial activity against Serratia marcescens assessed as susceptible isolates at minimum inhibitory concentration of 16 ug/ml by CLSI broth microdilution method; parameters: scale not given: the % may be the effect or the level left
Pseudomonas aeruginosa [24] = experiment: Antibacterial activity against Gentamicin-resistant Pseudomonas aeruginosa assessed as susceptible isolates at minimum inhibitory concentration of 16 ug/ml by CLSI broth microdilution method; parameters: scale not given: the % may be the effect or the level left
Klebsiella oxytoca = experiment: Antibacterial activity against Klebsiella oxytoca assessed as susceptible isolates at minimum inhibitory concentration of 4 ug/ml by CLSI broth microdilution method; parameters: scale not given: the % may be the effect or the level left
Klebsiella pneumoniae [25] = experiment: Antibacterial activity against ESBL-producing Klebsiella pneumoniae assessed as susceptible isolates at minimum inhibitory concentration of 0.12 ug/ml by CLSI broth microdilution method; parameters: scale not given: the % may be the effect or the level left
Klebsiella pneumoniae [26] = experiment: Antibacterial activity against ESBL-producing Klebsiella pneumoniae assessed as susceptible isolates at minimum inhibitory concentration of <=0.06 ug/ml by CLSI broth microdilution method; parameters: scale not given: the % may be the effect or the level left
Proteus mirabilis [27] = experiment: Antibacterial activity against Proteus mirabilis assessed as susceptible isolates at minimum inhibitory concentration of >16 ug/ml by CLSI broth microdilution method; parameters: scale not given: the % may be the effect or the level left
Acinetobacter baumannii [28] = experiment: Antibacterial activity against Acinetobacter baumannii assessed as susceptible isolates at minimum inhibitory concentration of 1 ug/ml by CLSI broth microdilution method; parameters: scale not given: the % may be the effect or the level left
Pseudomonas aeruginosa [29] = experiment: Antibacterial activity against Pseudomonas aeruginosa assessed as intermediate isolates at 4 ug/ml by CLSI broth microdilution method
Serratia marcescens [30] = experiment: Antibacterial activity against Serratia marcescens assessed as susceptible isolates at minimum inhibitory concentration of 1 ug/ml by CLSI broth microdilution method; parameters: scale not given: the % may be the effect or the level left
Serratia marcescens [31] = experiment: Antibacterial activity against Serratia marcescens assessed as susceptible isolates at minimum inhibitory concentration of 0.25 ug/ml by CLSI broth microdilution method; parameters: scale not given: the % may be the effect or the level left
Pseudomonas aeruginosa [32] = experiment: Antibacterial activity against tazobactam-resistant Pseudomonas aeruginosa assessed as susceptible isolates at minimum inhibitory concentration of 2 ug/ml by CLSI broth microdilution method; parameters: scale not given: the % may be the effect or the level left
Enterobacter cloacae [33] = experiment: Antibacterial activity against Enterobacter cloacae assessed as susceptible isolates at minimum inhibitory concentration of 8 ug/ml by CLSI broth microdilution method; parameters: scale not given: the % may be the effect or the level left
Pseudomonas aeruginosa [34] = experiment: Antibacterial activity against Ciprofloxacin-resistant Pseudomonas aeruginosa assessed as susceptible isolates at minimum inhibitory concentration of 8 ug/ml by CLSI broth microdilution method; parameters: scale not given: the % may be the effect or the level left
Pseudomonas aeruginosa [35] = experiment: Antibacterial activity against Pseudomonas aeruginosa assessed as susceptible isolates at minimum inhibitory concentration of 16 ug/ml by CLSI broth microdilution method; parameters: scale not given: the % may be the effect or the level left
Pseudomonas aeruginosa [36] = experiment: Antibacterial activity against Pseudomonas aeruginosa assessed as susceptible isolates at minimum inhibitory concentration of 4 ug/ml by CLSI broth microdilution method; parameters: scale not given: the % may be the effect or the level left
Proteus mirabilis [37] = experiment: Antibacterial activity against Proteus mirabilis assessed as susceptible isolates at minimum inhibitory concentration of 0.5 ug/ml by CLSI broth microdilution method; parameters: scale not given: the % may be the effect or the level left
Pseudomonas aeruginosa [38] = experiment: Antibacterial activity against Pseudomonas aeruginosa assessed as susceptible isolates at minimum inhibitory concentration of 8 ug/ml by CLSI broth microdilution method; parameters: scale not given: the % may be the effect or the level left
Acinetobacter baumannii [39] = experiment: Antibacterial activity against Acinetobacter baumannii assessed as susceptible isolates at minimum inhibitory concentration of 4 ug/ml by CLSI broth microdilution method; parameters: scale not given: the % may be the effect or the level left
Enterobacter cloacae [40] = experiment: Antibacterial activity against Enterobacter cloacae assessed as susceptible isolates at minimum inhibitory concentration of 0.5 ug/ml by CLSI broth microdilution method; parameters: scale not given: the % may be the effect or the level left

## COLISTIN
Escherichia coli [1]
  Activity: 97.3%
[2]
  Activity: 10.8%
Pseudomonas aeruginosa [3]
  Activity: 92.2%
Enterobacter cloacae [4]
  Activity: 84.9%
Klebsiella aerogenes [5]
  Activity: 100%
[6]
  Activity: 33.7%
Pseudomonas aeruginosa [7]
  Activity: 100%
Escherichia coli [8]
  Activity: 99.4%
Klebsiella aerogenes [9]
  Activity: 73%
Enterobacter cloacae [10]
  Activity: 100%
[11]
  Activity: 15.7%
[12]
  Activity: 0%
Serratia marcescens [13]
  Activity: 1.9%
Proteus mirabilis [14]
  Activity: 0%
Enterobacter cloacae [15]
  Activity: 0%
Pseudomonas aeruginosa [16]
  Activity: 33.3%
Pseudomonas aeruginosa [17]
  Activity: 0%
Klebsiella aerogenes [18]
  Activity: 97.3%
Klebsiella pneumoniae [19]
  Activity: 98.1%
Pseudomonas aeruginosa [20]
  Activity: 97.4%
Pseudomonas aeruginosa [21]
  Activity: 100%
Pseudomonas aeruginosa [22]
  Activity: 97.4%
Serratia marcescens [23]
  Activity: 1.9%
Pseudomonas aeruginosa [24]
  Activity: 99%
Klebsiella oxytoca
  Activity: 97.2%
Klebsiella pneumoniae [25]
  Activity: 0.8%
Klebsiella pneumoniae [26]
  Activity: 0%
Proteus mirabilis [27]
  Activity: 100%
Acinetobacter baumannii [28]
  Activity: 74.2%
Pseudomonas aeruginosa [29]
  Activity: 7.3%
Serratia marcescens [30]
  Activity: 1.9%
Serratia marcescens [31]
  Activity: 0%
Pseudomonas aeruginosa [32]
  Activity: 92.9%
Enterobacter cloacae [33]
  Activity: 85.5%
Pseudomonas aeruginosa [34]
  Activity: 98.6%
Pseudomonas aeruginosa [35]
  Activity: 99.1%
Pseudomonas aeruginosa [36]
  Activity: 98.9%
Proteus mirabilis [37]
  Activity: 0%
Pseudomonas aeruginosa [38]
  Activity: 99.1%
Acinetobacter baumannii [39]
  Activity: 93.5%
Enterobacter cloacae [40]
  Activity: 69.9%
